Test results: publication PMC6155659, “Application of the Triazolization Reaction to Afford Dihydroartemisinin Derivatives with Anti-HIV Activity” (Molecules : A Journal of Synthetic Chemistry and Natural …, 2017)
pIC50: −log10 of the molar value. Read-outs that look alike come from different tables or passages of the source.

Legend:
HIV-2 (ROD) = test: Anti-HIV-2 (ROD) activity in MT-4 cell cultures, MTT method; assay type: cell-based
Procedure: (§1) The newly synthesized dihydroartemisinin triazole derivatives were evaluated for their inhibitory effects (IC50) on the replication of wild-type HIV-1 (IIIB) and HIV-2 (ROD) in MT-4 cell cultures, in parallel with their cytotoxicities (CC50) using the 3-(4,5-dimethylthiazol-2-yl)-2,5-diphenyl tetrazolium bromide (MTT) method. A series of nucleoside reverse transcriptase inhibitors (NRTIs)—i.e., azidothymidine (AZT), lamivudine (3TC) and didanosine (DDI)—and non-nucleoside reverse transcriptase inhibitors (NNRTIs)—i.e., nevirapine (NVP), efavirenz (EFV), and etravirine (ETR)—were included as reference compounds. The biological results are represented as IC50 and CC50 values in Table 3.

wild-type HIV-1 (IIIB) = test: Anti-HIV-1 (IIIB) activity in MT-4 cell cultures, MTT method; assay type: cell-based; settings: for anti-HIV-1 wild-type activity (in words): MT-4 cells, HIV-1 IIIB
Procedure: as §1

[1] = Cytotoxicity in mock-infected MT-4 cell cultures, MTT method; assay type: cell-based; settings: human
Procedure: as §1

MT-4 cells = test: as above; assay type: cell-based; settings: cell culture
Procedure: as §1

[2] = tested on: double reverse transcriptase mutant (K103N; Y181C) HIV-1 strain (RES056); test: Activity against double reverse transcriptase mutant HIV-1 strain RES056 in MT-4 cell cultures, MTT method; assay type: cell-based; settings: for pIC50: Human immunodeficiency virus 1, MT4, read-out: IC50 HIV-1 Strain RES056; for inhibitory activity against RES056 (in words): K103N, Y181C double RT mutant HIV-1, MT-4 cells
Procedure: as §1
Most of the new triazole analogues of dihydroartemisinin are completely devoid of anti-HIV activity. […] The active molecules were also evaluated for their inhibitory activity against a double reverse transcriptase mutant (K103N; Y181C) HIV-1 strain (RES056). […] Therefore, the active β-tetralone derivatives most probably act via an NNRTI-type mode of action.

[3] = Human immunodeficiency virus 2, MT4, read-out: IC50 HIV-2 Strain ROD
[4] = Human immunodeficiency virus 1, IIIB, MT4, 50% protection of MT-4 cell cultures against virus-induced cytotoxicity, MTT method, read-out: IC50 HIV-1 Strain IIIB
[5] = mock-infected MT-4 cells, concentration reducing viability of mock-infected MT-4 cell cultures by 50%, MTT method, read-out: CC50
[6] = Human immunodeficiency virus 2, MT4, 50% protection of MT-4 cell cultures against virus-induced cytotoxicity, MTT method, read-out: IC50 HIV-2 Strain ROD
[7] = concentration reducing viability of mock-infected MT-4 cell cultures by 50%, MTT method, read-out: CC50

Row | Compound | pIC50 (HIV-2 (ROD); [3]) | pIC50 (wild-type HIV-1 (IIIB); [4]) | anti-HIV-1 wild-type activity (in words) (wild-type HIV-1 (IIIB)) | CC50 [1, 5] | pIC50 [2] | inhibitory activity against RES056 (in words) [2] | pIC50 (HIV-2 (ROD); [6]) | melting point | also measured
1 | COc1ccc2c(c1)-c1nnn(CCO[C@@H]3O[C@@H]4O[C@@]5(C)CCC6[C@H](C)CC[C@@H]([C@H]3C)[C@]64OO5)c1CC2 (stereo partly drawn) [Compound 8e, 8-Methoxy-3-(2-(((3R,6R,8aS,9R,10R,12R,12aR)-3,6,9-trimethyldecahydro-12H-3,12-epoxy[1,2]dioxepino[4,3-i]isochromen-10-yl)oxy)ethyl)-4,5-dihydro-3H-naphtho[1,2-d][1,2,3]triazole] | < 4.83 | 5.29 | inhibitory to HIV-1 replication | 14.9 µM | < 4.83 | completely lose their inhibitory activity |  |  | cytotoxicity (in words) (MT-4 cells): limited cytotoxicity
2 | Cc1cn([C@H]2C[C@H](N=[N+]=[N-])[C@@H](CO)O2)c(=O)[nH]c1=O [Azidothymidine, azidothymidine, reference compound] |  | 8.19 |  |  | 8.15 |  | 8.09 |  | CC50 [1]: > 7.5 µM
3 | COc1cc2c(cc1OC)-c1nnn(CCO[C@@H]3O[C@@H]4O[C@@]5(C)CCC6[C@H](C)CC[C@@H]([C@H]3C)[C@]64OO5)c1CC2 (stereo partly drawn) [Compound 8c, 7,8-Dimethoxy-3-(2-(((3R,6R,8aS,9R,10R,12R,12aR)-3,6,9-trimethyldecahydro-12H-3,12-epoxy[1,2]dioxepino[4,3-i]isochromen-10-yl)oxy)ethyl)-4,5-dihydro-3H-naphtho[1,2-d][1,2,3]triazole] | < 4.67 | 5.39 | inhibitory to HIV-1 replication | 21.2 µM | < 4.67 | completely lose their inhibitory activity |  |  | cytotoxicity (in words) (MT-4 cells): limited cytotoxicity
4 | C[C@H]1[C@H](OCCn2nnc3c2-c2ccccc2CC3)O[C@@H]2O[C@@]3(C)CCC4[C@H](C)CC[C@@H]1[C@]42OO3 (stereo partly drawn) [Compound 8a, 1-(2-(((3R,6R,8aS,9R,10R,12R,12aR)-3,6,9-Trimethyldecahydro-12H-3,12-epoxy[1,2]dioxepino[4,3-i]isochromen-10-yl)oxy)ethyl)-4,5-dihydro-1H-naphtho[1,2-d][1,2,3]triazole] |  | < 4.99 | did not show any activity | > 10.3 µM |  |  | < 4.99 |  | 
5 | COc1cc(Cn2nnc3c2CCC(C(=O)O[C@@H]2O[C@@H]4O[C@@]5(C)CCC6[C@H](C)CC[C@@H]([C@H]2C)[C@]64OO5)C3)cc(OC)c1OC (stereo partly drawn) |  |  |  |  |  |  |  | 80 to 81 °C | 
6 | C[C@H]1[C@H](OCCn2nnc3c2CCc2ccccc2-3)O[C@@H]2O[C@@]3(C)CCC4[C@H](C)CC[C@@H]1[C@]42OO3 (stereo partly drawn) [Compound 8b, 3-(2-(((3R,6R,8aS,9R,10R,12R,12aR)-3,6,9-Trimethyldecahydro-12H-3,12-epoxy[1,2]dioxepino[4,3-i]isochromen-10-yl)oxy)ethyl)-4,5-dihydro-3H-naphtho[1,2-d][1,2,3]triazole] | < 4.50 | 5.56 | inhibitory to HIV-1 replication | 31.5 µM | < 4.50 | completely lose their inhibitory activity |  | 104 to 105 °C | cytotoxicity (in words) (MT-4 cells): limited cytotoxicity
7 | C[C@H]1[C@H](OCCn2nncc2-c2ccc(Br)c(Br)c2)O[C@@H]2O[C@@]3(C)CCC4[C@H](C)CC[C@@H]1[C@]42OO3 (stereo partly drawn) |  |  |  |  |  |  |  | 105 to 106 °C | 
8 | Cc1ccnc2c1NC(=O)c1cccnc1N2C1CC1 [Nevirapine, nevirapine] |  | 7.12 |  |  | < 4.82 | completely lose their inhibitory activity | < 4.82 |  | CC50 [1, 7]: > 15 µM
9 | C[C@H]1[C@H](OCCn2nnc3c2C[C@@H]2CC[C@@H]4[C@H](CC[C@]5(C)[C@@H](O)CC[C@@H]45)[C@@]2(C)C3)O[C@@H]2O[C@@]3(C)CCC4[C@H](C)CC[C@@H]1[C@]42OO3 (stereo partly drawn) |  |  |  |  |  |  |  | 96 to 97 °C | 
10 | Nc1ccn([C@@H]2CS[C@H](CO)O2)c(=O)n1 [Lamivudine, lamivudine, reference compound] |  | 5.60 |  |  |  |  | 5.00 |  | CC50 [1]: > 87.2 µM
11 | O=c1[nH]cnc2c1ncn2[C@H]1CC[C@@H](CO)O1 [Didanosine, didanosine, reference compound] |  | 4.12 |  |  |  |  | 4.09 |  | CC50 [1]: > 212 µM
12 | O=C1Nc2ccc(Cl)cc2[C@@](C#CC2CC2)(C(F)(F)F)O1 [Efavirenz, efavirenz] |  | 8.62 |  |  | 6.74 | only slightly affected | < 5.20 |  | CC50 [1, 7]: > 6.3 µM
13 | Cc1cc(C#N)cc(C)c1Oc1nc(Nc2ccc(C#N)cc2)nc(N)c1Br [Etravirine, etravirine] | < 5.64 |  |  | 2.29 µM | 7.35 | only slightly affected |  |  | pIC50 (wild-type HIV-1 (IIIB); Human immunodeficiency virus 1, MT4, read-out: IC50 HIV-1 Strain IIIB): 8.47
